{"source": "patent US20110190155A1", "about": "(Korea Institute of Science and Technology, priority 2007, published 2011)", "key": {"[1]": {"conditions": "cited from earlier work"}, "in vitro": {"test": "in vitro", "type": "cell-based", "conditions": "human", "experimental": "BEAS-2B (CRL-9609, ATCC, USA), a human bronchial epithelial cell line, was cultured in a T 75 flask containing DMEM (Gibco-BRL, USA) supplemented with 10% FBS at the concentration of 5×10^5 cells/ml. […] The concentration of the vehicle was less than 0.1% in every experiment.\nMTT assay with the BEAS-2B cell line was performed according to the method of Mossman et al (J. Immunol. Methods, 65, 55-63, 1983). […] 48 hours later, MTT (3-[4,5-dimethylthiazol-2-yl]-2,5-diphenyltetra zolium bromide) 5 mg/ml was added at the concentration of 5 mg/ml, followed by culture at 37° C. for 3 hours. Then, medium was eliminated and generated formazan crystal was dissolved in 500 μl of DMSO. The solution was aliquoted in a 96 well-plate and OD540 was measured."}, "[2]": {"conditions": "patients treated with amiodarone"}}}
{"smiles": "CCCCc1oc2ccccc2c1C(=O)c1cc(I)c(OCCN(CC)CC)c(I)c1", "note": "[amiodarone]", "values": [{"measurement": "patients exhibiting boredom, fatigue, tremor, walking difficulty and peripheral neuropathy", "setting": "[1]; [2]", "result": "20-40%"}, {"measurement": "patients showing gastrointestinal disorder, nausea, vomiting, constipation and loss of appetite", "setting": "[1]; [2]", "result": "Approximately 25%"}, {"measurement": "patients treated with amiodarone exhibiting side effects", "setting": "[1]; patients", "result": "approximately 50%"}, {"measurement": "IC20 at 48 h", "setting": "in vitro", "result": 29.4, "unit": "µM"}, {"measurement": "genes identified to be up-regulated", "setting": "BEAS-2B cells; 44 genes out of 44,290 genes, Cy5/Cy3 more than 2.0 fold", "result": 0.1, "unit": "%"}, {"measurement": "genes identified to be down-regulated", "setting": "BEAS-2B cells; 45 genes out of 44,290 genes, Cy5/Cy3 less than 0.5 fold", "result": 0.10, "unit": "%"}]}
